Entries after “also recorded” stand apart in the source; their conditions may differ. Like-named read-outs stand apart in the source and are kept apart here.
Legend:
[1] = Cytotoxicity on L929 cells (alamarBlue); assay type: cell-based; conditions: mouse, L929 fibroblasts (infected with T. cruzi), 96-hour exposure
Protocol: (§1) Because the amount of beta-galactosidase is directly proportional to the number of parasites, trypanocidal activity was assessed by measuring the decrease in beta-galactosidase activity in the treated cultures compared to the infected control culture without treatment. To determine the cytotoxicity of the compounds on L929 cells, absorbance was measured at two wavelengths (570 and 600 nm) after 4-6 hours of incubation with alamarBlue® reagent (Invitrogen Corporation, USA). Cytotoxicity was evaluated by analyzing the difference in reagent reduction between treated cells (TC) and untreated cells (UT) using an equation provided by the manufacturer of alamarBlue®: […]
(§2) Half-maximum inhibitory concentration (IC50) and half-maximum cytotoxicity concentration (CC50) values were determined through linear interpolation[45] using Excel software (Microsoft Corporation, USA). The assay was conducted in triplicate, and the results are expressed as the percentage inhibition of parasite growth Cytotoxicity assay.
In vitro cytotoxicity assessments of the compounds were performed using AlamarBlue®. The cells and experimental conditions mirrored those used for the trypanocidal assay. After a 96-hour exposure of mouse L929 fibroblasts infected with T. cruzi to the test compounds, alamarBlue® was added, and absorbance was measured after an additional 4-6-hour incubation. IC50 values were determined by linear interpolation, and the selectivity index (SI) was calculated as the ratio of CC50 (the concentration causing 50% cytotoxicity) to IC50 (the concentration causing 50% parasitic inhibition). Benznidazole served as the positive control for comparative analysis.

[2] = test system: intracellular amastigotes of Trypanosoma cruzi Tulahuen transfected with β-galactosidase strain; test: In vitro trypanocidal activity, β-galactosidase-expressing T. cruzi in L929 fibroblasts; assay type: cell-based; conditions: for IC50: intracellular amastigotes, Tulahuen β-galactosidase strain, 96 hours of exposition; for Selectivity index (SI): CC50 (L929)/IC50 (T. cruzi Tulahuen)
Protocol: The in vitro assays were conducted at the Centro de Pesquisas René Rachou-Fiocruz (FIOCRUZ-MINAS), Minas Gerais, Brazil. To evaluate trypanocidal activity, initial in vitro screening was performed following the protocols described by Buckner et al.[43] and Romanha et al.. In this assay, Tulahuen T. cruzi strain expressing β-galactosidase trypomastigotes and intracellular amastigotes were cultured in mouse L929 fibroblasts in RPMI1640 medium without phenol red and containing 10% fetal bovine serum. Tissue culture microplates with L929 fibroblasts were incubated overnight at 37°C with 5% CO2. Subsequently, the Tulahuen β-galactosidase-expressing trypomastigotes were added at a ratio of 1:10 cells to trypomastigotes for 2 hours. The medium was then replaced with fresh medium, and the cultures were incubated for 48 hours. Following this step, the medium was replaced with a solution of the test compound, diluted in dimethyl sulfoxide (DMSO, less than 1%), in RPMI1640 medium with concentrations ranging from 5 to 20 µM. […] Benznidazole was utilized as a positive control at 1 µg/mL (3.84 µM).
as §1, §2

U87MG lineage = test system: U87MG lineage; set-up: method as in earlier work; conditions: human glioblastoma cells; cited from earlier work
[3] = test system: Trypanosoma cruzi Y strain; test: In vivo rapid test, parasitemia in Swiss mice infected with T. cruzi Y strain; conditions: for Reduction in parasitemia: oral gavage once daily for five days, doses of 10, 50, and 250 mg/kg/day; for Overall performance in vivo compared with BZ / Parasitemia compared to infected untreated animals / Parasitemia compared to the untreated group: oral; for Overall performance in vivo compared with BZ: BZ at 100 mg/kg; for Parasitemia compared to infected untreated animals: doses of 50 and 250 mg/kg/day; for Parasitemia compared to the untreated group: smallest dose 10 mg/kg/day
Protocol: The in vivo assays were conducted at the Laboratório de Pesquisas Clínicas, Escola de Farmácia, Universidade Federal de Ouro Preto (UFOP), Minas Gerais State, Brazil, utilizing only compounds with a selectivity index (SI) exceeding 50 (Table 1).
Swiss female mice aged 28-30 days were obtained from the Centro de Ciência Animal of the Universidade Federal de Ouro Preto (UFOP), Minas Gerais State, Brazil. The animals were housed in a temperature range of 20-24 °C with a 12-hour light-dark cycle, and had ad libitum access to filtered water and commercial feed. The experimental procedures were approved by the institutional Comitê de Ética em Experimentação Animal (CEUA-UFOP), Minas Gerais State, Brazil, Protocol 2157041219.
The mice were intraperitoneally infected with 1x10^4 blood trypomastigotes of the T. cruzi Y strain obtained from mice maintained by successive blood passages (CEUA 2015/50). Infection was confirmed by fresh blood examination (FBE)[46] on the 4th day after infection, and treatment commenced. For the in vivo test, the highest concentration attainable when blending the test compounds in various orally safe vehicles was selected. Canola oil yielded the most favorable results. The compounds were diluted with canola oil to the highest possible concentration of 25 mg/mL. Subsequently, two different dilutions (5x) were prepared, resulting in doses of 250, 50, and 10 mg/kg/day. These doses were administered via oral gavage once daily (group n = 8). In parallel, a control group of mice remained infected and untreated (INT), while another group received treatment with the reference drug (BZ) at a dose of 100 mg/kg. The BZ tablets were crushed with 0.5% gum arabic, and suspended in distilled water.
To evaluate the effectiveness of the compounds in reducing parasitemia, FBE was conducted daily for five consecutive days, during which parasitemia was counted.

[4] = top concentration limited by solubility (20 to 160 µg/mL)
[5] = Trypanosoma cruzi, TULAHUEN, L929, 96 h, read-out: IC50
[6] = Trypanosoma cruzi, TULAHUEN, L929, 96 h, value in brackets, read-out: IC50

Compound `O=C(Cn1ccnc1[N+](=O)[O-])NCc1ccccc1` [Benznidazole, reference compound] has a CC50 at 96 h [1, 4] of 625 µg/mL, an IC50 [2, 5] of 1 µg/mL and an IC50 [2, 6] of 3.81 µM.
For `O=C1c2ccccc2C(=O)N1Cc1cn(-c2cc(C(F)(F)F)ccc2N2CCOCC2)nn1` [Compound 6A], the “Cytotoxicity / cellular growth of U87MG lineage” value (U87MG lineage) is listed as “no perceived cytotoxicity” and the IC50 [2] is listed as “Not active”.
For `FC(F)(F)c1ccc(N2CCOCC2)c(-n2cc(COCc3ccc(Cl)cc3)nn2)c1` [Compound 6B], the CC50 at 96 h [1, 4] was 36.1 µg/mL, the CC50 at 96 h ([1]; value in brackets) was 79 µM and the “Selectivity index (SI)” value [2] was 15.7. The IC50 [2, 6] was 5 µM.
For `FC(F)(F)c1ccc(N2CCOCC2)c(-n2cc(COCc3ccc(Br)cc3)nn2)c1` [Compound 6C], the CC50 at 96 h [1, 4] was 80 µg/mL, the CC50 at 96 h ([1]; value in brackets) was 161 µM and the “Selectivity index (SI)” value [2] was 23.5. It also gave an IC50 [2, 5] of under 5 µg/mL and an IC50 [2, 6] of 6.8 µM.
With `COc1ccc(COCc2cn(-c3cc(C(F)(F)F)ccc3N3CCOCC3)nn2)cc1` [Compound 6D] the CC50 at 96 h [1, 4] was over 20 µg/mL, the CC50 at 96 h ([1]; value in brackets) was over 47.6 µM and the “Selectivity index (SI)” value [2] was over 3.0. It also gave an IC50 [2, 5] of 6.6 µg/mL and an IC50 [2, 6] of 15.7 µM.
With `FC(F)(F)c1ccc(N2CCOCC2)c(-n2cc(COCc3ccccc3)nn2)c1` [Compound 6E] the CC50 at 96 h [1, 4] was 62.6 µg/mL, the CC50 at 96 h ([1]; value in brackets) was 160 µM and the “Selectivity index (SI)” value [2] was 125.2. The IC50 [2, 5] was 0.5 µg/mL, the IC50 [2, 6] was 1.3 µM and the Reduction in parasitemia [3] was “reduction in parasitemia; also recorded: effectively reduced”. The “Overall performance in vivo compared with BZ” value [3] was “inferior overall performance”, the “Parasitemia compared to infected untreated animals” value [3] was “significantly reduced” and the “Parasitemia compared to the untreated group” value [3] was “did not markedly reduce parasitemia”.
In the case of `CCN(CC)c1ccc(C(F)(F)F)cc1-n1cc(COCc2ccc(Cl)cc2)nn1` [Compound 6F], the IC50 [2] is reported as “Not active”.
With `FC(F)(F)c1ccc(N2CCCCC2)c(-n2cc(COCc3ccc(Cl)cc3)nn2)c1` [Compound 6G] the CC50 at 96 h [1, 4] was over 160 µg/mL, the CC50 at 96 h ([1]; value in brackets) was over 355 µM and the IC50 [2, 5] was under 5 µg/mL. It also gave an IC50 [2, 6] of 10.4 µM.
For `FC(F)(F)c1ccc(N2CCCCC2)c(-n2cc(COCc3ccc(Br)cc3)nn2)c1` [Compound 6H], the CC50 at 96 h [1, 4] was over 160 µg/mL, the CC50 at 96 h ([1]; value in brackets) was over 323 µM and the “Selectivity index (SI)” value [2] was over 69. The IC50 [2, 6] was 4.6 µM, the Reduction in parasitemia [3] was “reduction in parasitemia; also recorded: effectively reduced” and the “Overall performance in vivo compared with BZ” value [3] was “inferior overall performance”. For the same compound, the “Parasitemia compared to infected untreated animals” value [3] was “significantly reduced” and the “Parasitemia compared to the untreated group” value [3] was “did not markedly reduce parasitemia”.
In the case of `O=C1c2ccccc2C(=O)N1Cc1cn(-c2cc(C(F)(F)F)ccc2N2CCCCC2)nn1` [Compound 6I], the IC50 [2] is reported as “Not active”.
Compound `FC(F)(F)c1ccc(N2CCCCC2)c(-n2cc(COCc3ccccc3)nn2)c1` [Compound 6J] has a CC50 at 96 h [1, 4] of over 20 µg/mL, a CC50 at 96 h ([1]; value in brackets) of over 48 µM and an IC50 [2, 5] of 6.5 µg/mL. For the same compound, the IC50 [2, 6] was 15.6 µM.
Work on `COc1ccc(COCc2cn(-c3cc(C(F)(F)F)ccc3N3CCCCC3)nn2)cc1` [Compound 6K] yielded a CC50 at 96 h [1, 4] of over 20 µg/mL, a CC50 at 96 h ([1]; value in brackets) of over 45 µM and an IC50 [2, 5] of 10.5 µg/mL. For the same compound, the IC50 [2, 6] was 23.5 µM.

— paper PMC11290850, “Screening of synthetic 1,2,3-triazolic compounds inspired by SRPIN340 as anti-Trypanosoma cruzi agents” (Revista da Sociedade Brasileira de Medicina Tropical, 2024)
